Structures are written as SMILES.

Common to all, as to assay type: biochemical
One assay addresses CDK9/CycT1 (Homo sapiens, UniProt P50750). Description: ADP-Glo kinase assay on CDK enzymatic activity, CDK9/CycT1. Particulars: 10 concentrations from 10 μM, 4-fold, 60 min room temperature. From the text: (§1) Test samples: the compounds of the present invention, having structures shown above.
(§2) ADP-Glo Kinase Assay (ADP-Glo kinase kit), DMSO (dimethyl sulfoxide), CDK9/CycT1 (cyclin-dependent kinase 9/cyclin T1), CDK tide (cyclin-dependent kinase substrate peptide fragments), CDK1/CycE1 (cyclin-dependent kinase 1/cyclin E1), CDK2/CycA2 (cyclin-dependent kinase 2/cyclin A2), CDK3/CycE1 (cyclin-dependent kinase 3/cyclin E1), CDK4/CycD3 (cyclin-dependent kinase 4/cyclin D3), CDK5/p25NCK (cyclin-dependent kinase 5/p25), and AZD 4573.
(§3) A 384-well white plate, a 96-well plate, a microplate oscillator, a centrifuge, and a microplate reader.
(§4) The compounds were dissolved in DMSO and diluted 4-fold in the 96-well plate to obtain stock solutions with 10 concentration gradients, and added into a 384-well plate system to obtain a series of 10 concentration gradients of compound solutions with final concentrations of 10 μM starting and 4-fold gradient decreasing. 1 μM AZD4573 was used as compound positive control (PC) and 0.5% DMSO as solvent vehicle control (VC), ten duplicated wells each for PC and VC.
(§5) 1 μL of compound solution and 2 μL of 2× kinase solution were transferred to each well, and the plate was centrifuged at 1000 g for 30 s and left at room temperature for 10 min. A mixture of 2× substrate and ATP was prepared in 1× kinase buffer. The reaction was started after adding 2 μL of substrate and ATP into the plate. The plate was centrifuged at 1000 g for 30 s. The assay plate was closed and left at room temperature for 60 min. The reaction system was added with 4 μL of ADP Glo reagent, centrifuged at 1000 rpm for 1 min, and incubated at room temperature for 40 min. The reaction system was added with 8 μL of kinase assay reagent, centrifuged at 1000 rpm for 1 min and incubated at room temperature for 40 min. The […] was read on Biotek.
(§6) The inhibition rate was calculated according to the following formula: […]
(§7) Lumcmpd: compound fluorescence reading; Lumpositive: average value of the fluorescence reading of positive compound control; Lumvehicle: average value of the fluorescence reading of solvent vehicle control.
(§8) IC50 values were fitted using GraphPad 7.0 based on inhibition rates of compounds at different concentrations.
On the technique in general: ADP-Glo turns the ADP formed in a reaction into a luminescent signal.

The target of the next assay is CDK1/CycE1 (Homo sapiens, UniProt P06493). Description: ADP-Glo kinase assay on CDK enzymatic activity, CDK1/CycE1. Particulars: ADP-Glo; 10 concentrations from 10 μM, 4-fold; 60 min room temperature; read-out: CDK1/CycE1/nM (IC50). The procedure: as §1, §3, §4, §5, §6, §7, §8
The target in the next assay is CDK2/CycA2 (Homo sapiens, UniProt P24941). Description: ADP-Glo kinase assay on CDK enzymatic activity, CDK2/CycA2. Particulars: 10 concentrations from 10 μM, 4-fold, 60 min room temperature.
From the text: as §1, §2, §3, §4, §5, §6, §7, §8

Chain of CDK9/CycT1 (P50750 whole entry, the tested form may be a part): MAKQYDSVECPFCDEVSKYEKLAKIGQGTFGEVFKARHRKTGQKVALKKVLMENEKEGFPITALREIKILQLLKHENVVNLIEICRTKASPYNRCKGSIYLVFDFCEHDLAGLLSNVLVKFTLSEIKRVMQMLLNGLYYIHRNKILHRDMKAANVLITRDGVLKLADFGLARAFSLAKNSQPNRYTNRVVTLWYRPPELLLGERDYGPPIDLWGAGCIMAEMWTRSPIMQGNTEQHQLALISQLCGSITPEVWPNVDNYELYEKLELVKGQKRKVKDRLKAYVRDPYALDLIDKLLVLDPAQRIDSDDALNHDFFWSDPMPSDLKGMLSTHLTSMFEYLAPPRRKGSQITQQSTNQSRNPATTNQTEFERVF
Chain of CDK9/CycT1 (O60563 whole entry partner, the tested form may be a part): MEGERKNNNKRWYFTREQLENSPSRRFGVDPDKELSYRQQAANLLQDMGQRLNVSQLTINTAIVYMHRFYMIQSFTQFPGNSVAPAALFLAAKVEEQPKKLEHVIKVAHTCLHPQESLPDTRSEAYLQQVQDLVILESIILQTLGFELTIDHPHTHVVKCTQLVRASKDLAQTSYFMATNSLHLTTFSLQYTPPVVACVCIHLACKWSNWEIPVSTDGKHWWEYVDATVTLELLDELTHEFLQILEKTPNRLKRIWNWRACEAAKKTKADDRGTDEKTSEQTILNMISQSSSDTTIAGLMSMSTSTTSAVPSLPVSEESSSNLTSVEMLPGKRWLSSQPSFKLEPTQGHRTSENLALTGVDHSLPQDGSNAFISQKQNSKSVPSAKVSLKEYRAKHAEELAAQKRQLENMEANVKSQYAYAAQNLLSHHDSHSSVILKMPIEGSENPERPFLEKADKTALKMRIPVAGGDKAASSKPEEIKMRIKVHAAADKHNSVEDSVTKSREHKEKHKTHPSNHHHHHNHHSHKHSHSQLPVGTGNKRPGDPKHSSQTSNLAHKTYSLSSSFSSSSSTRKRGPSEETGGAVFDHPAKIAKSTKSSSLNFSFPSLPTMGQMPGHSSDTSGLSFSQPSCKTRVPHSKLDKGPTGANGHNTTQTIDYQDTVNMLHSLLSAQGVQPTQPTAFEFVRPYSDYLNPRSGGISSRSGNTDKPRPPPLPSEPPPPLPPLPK
Chain of CDK1/CycE1 (P06493 whole entry, species assumed): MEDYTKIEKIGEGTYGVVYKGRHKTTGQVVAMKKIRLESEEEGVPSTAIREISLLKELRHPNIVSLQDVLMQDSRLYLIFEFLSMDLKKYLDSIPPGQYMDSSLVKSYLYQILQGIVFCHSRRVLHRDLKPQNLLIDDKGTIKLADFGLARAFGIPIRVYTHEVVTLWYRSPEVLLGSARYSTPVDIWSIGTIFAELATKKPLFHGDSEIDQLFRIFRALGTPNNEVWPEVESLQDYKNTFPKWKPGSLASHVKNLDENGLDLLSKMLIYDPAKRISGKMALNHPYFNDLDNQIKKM
Chain of CDK1/CycE1 (P24864 whole entry partner, species assumed): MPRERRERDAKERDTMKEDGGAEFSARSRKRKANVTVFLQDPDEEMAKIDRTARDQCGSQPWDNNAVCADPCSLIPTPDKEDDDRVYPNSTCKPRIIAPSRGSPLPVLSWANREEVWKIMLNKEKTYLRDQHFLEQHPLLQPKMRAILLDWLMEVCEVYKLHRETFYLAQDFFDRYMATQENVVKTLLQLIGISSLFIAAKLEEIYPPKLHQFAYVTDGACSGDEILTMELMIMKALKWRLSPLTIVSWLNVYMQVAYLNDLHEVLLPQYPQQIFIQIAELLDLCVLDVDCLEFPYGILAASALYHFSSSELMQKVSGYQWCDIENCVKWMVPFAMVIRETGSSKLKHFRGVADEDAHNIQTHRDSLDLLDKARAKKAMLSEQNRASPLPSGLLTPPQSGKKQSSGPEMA

For the compound `CC(C)Nc1nc(C#N)cc2cnc(N[C@H]3C[C@@H](O)C3)nc12` [Compound 133, 2-(((1s,3s)-3-hydroxycyclobutyl)amino)-8-(isopropylamino)pyrido[3,4-d]pyrimidine-6-carbonitrile], the results for the IC50 on CDK9/CycT1, on CDK1/CycE1 and against CDK2/CycA2 were 2 nM, 29 nM and 10 nM, respectively.
For `CC(C)Nc1nc(C#N)cc2cnc(N[C@H]3C[C@H](O)C3)nc12` [Compound 134, 2-(((1r,3r)-3-hydroxycyclobutyl)amino)-8-(isopropylamino)pyrido[3,4-d]pyrimidine-6-carbonitrile], in that order: 1 nM, 11 nM and 5 nM.
For `CC(C)Nc1nc(C#N)cc2cnc(N[C@H]3CC[C@H](N(C)C)CC3)nc12` [Compound 138, 2-(((1r,4r)-4-(dimethylamino)cyclohexyl)amino)-8-(isopropylamino)pyrido[3,4-d]pyrimidine-6-carbonitrile], in that order: 3 nM, 166 nM and 49 nM.
For `CC(C)Nc1nc(C#N)cc2cnc(N[C@H]3CC[C@H](N4CCOCC4)CC3)nc12` [Compound 141, 8-(isopropylamino)-2-(((1r,4r)-4-morpholinocyclohexyl)amino)pyrido[3,4-d]pyrimidine-6-carbonitrile], in that order: 2 nM, 197 nM and 23 nM.
In the case of `CC(C)Nc1nc(C(F)F)cc2cnc(Nc3cc(CS(C)(=N)=O)ccn3)cc12` (stereo not shown) [Compound 163, ((2-((7-(difluoromethyl)-5-(isopropylamino)-2,6-naphthyridin-3-yl)amino)pyridin-4-yl)methyl)(methyl)sulfinylimine], the IC50 against CDK9/CycT1 amounted to 2 nM; at CDK1/CycE1, 31 nM; on CDK2/CycA2, 7 nM.
For `CC(C)Nc1nc(C#N)cc2cnc(N[C@H]3C[C@@H](N)C3)cc12` [Compound 164, 7-(((1s,3s)-3-aminocyclobutyl)amino)-1-(isopropylamino)-2,6-naphthyridine-3-carbonitrile], in that order: 1 nM, 138 nM and 135 nM.
With `CC(C)Nc1nc(C#N)cc2cnc(N[C@H]3C[C@H](O)C3)cc12` [Compound 166, 7-(((1r,3r)-3-hydroxycyclobutyl)amino)-1-(isopropylamino)-2,6-naphthyridine-3-carbonitrile], the IC50 was 2 nM against CDK9/CycT1, 14 nM on CDK1/CycE1 and 10 nM on CDK2/CycA2.
Turning to `CC(=O)N[C@H]1C[C@@H](Nc2cc3c(NC(C)C)nc(C#N)cc3cn2)C1` [Compound 167, N-((1s,3s)-3-((7-cyano-5-(isopropylamino)-2,6-naphthyridin-3-yl)amino)cyclobutyl)acetamide], the IC50 against CDK9/CycT1 stood at 2 nM; on CDK1/CycE1, 55 nM; at CDK2/CycA2 it was 19 nM.
For `N#Cc1cc2cnc(N[C@H]3CCCNC3)cc2c(NC2CCCC2)n1` [Compound 168, (S)-1-(cyclopentylamino)-7-(piperidin-3-ylamino)-2,6-naphthyridine-3-carbonitrile], in that order: 1 nM, 63 nM and 125 nM.
For `N#Cc1cc2cnc(N[C@H]3CCCNC3)cc2c(N2CCCC2)n1` [Compound 169, (S)-7-(piperidin-3-ylamino)-1-(pyrrolidin-1-yl)-2,6-naphthyridine-3-carbonitrile], in that order: 5 nM, 798 nM and 2210 nM.
For `CC(C)Nc1nc(C#N)cc2cnc(Nc3cc(CS(C)(=N)=O)ccn3)cc12` (stereo not shown) [Compound 170, 1-(isopropylamino)-7-((4-((S-methylsulfonimidoyl)methyl)pyridin-2-yl)amino)-2,6-naphthyridine-3-carbonitrile], in that order: 4 nM, 144 nM and 34 nM.
With `CCN(CC)c1nc(C#N)cc2cnc(N[C@H]3CCCNC3)cc12` [Compound 171, (S)-1-(diethylamino)-7-(piperidin-3-ylamino)-2,6-naphthyridine-3-carbonitrile], the IC50 against CDK9/CycT1 was found to be 4 nM; at CDK1/CycE1 it was 638 nM; at CDK2/CycA2, 815 nM.
For `CC(C)(C)Nc1nc(C#N)cc2cnc(N[C@H]3C[C@@H](N)C3)cc12` [Compound 172, 7-(((1s,3s)-3-aminocyclobutyl)amino)-1-(tert-butylamino)-2,6-naphthyridine-3-carbonitrile], in that order: 1 nM, 395 nM and 287 nM.
For `N#Cc1cc2cnc(N[C@H]3CC[C@H](N)C3)cc2c(N[C@@H]2CCOC2)n1` [Compound 173, 7-(((1S,3S)-3-aminocyclopentyl)amino)-1-(((R)-tetrahydrofuran-3-yl)amino)-2,6-naphthyridine-3-carbonitrile], in that order: 4 nM, 952 nM and 436 nM.
`N#Cc1cc2cnc(N[C@H]3C[C@@H](N)C3)cc2c(N[C@@H]2CCOC2)n1` [Compound 174, 7-(((1s,3S)-3-aminocyclobutyl)amino)-1-(((R)-tetrahydrofuran-3-yl)amino)-2,6-naphthyridine-3-carbonitrile]: the IC50 on CDK9/CycT1 was 2 nM; on CDK1/CycE1 it was 871 nM; against CDK2/CycA2, 510 nM.
For `N#Cc1cc2cnc(N[C@H]3C[C@H](N)C3)cc2c(N[C@@H]2CCOC2)n1` [Compound 179, 7-(((trans)-3-aminocyclobutyl)amino)-1-(((R)-tetrahydrofuran-3-yl)amino)-2,6-naphthyridine-3-carbonitrile], in that order: 1 nM, 272 nM and 144 nM.
For `N#Cc1cc2cnc(N[C@H]3CCCNC3)cc2c(C2=CCCCC2)n1` [Compound 180, (S)-1-(cyclohex-1-en-1-yl)-7-(piperidin-3-ylamino)-2,6-naphthyridine-3-carbonitrile], in that order: 7 nM, 204 nM and 844 nM.
For `N#Cc1cc2cnc(N[C@H]3CCCNC3)cc2c(C2=CCCC2)n1` [Compound 181], in that order: 7 nM, 518 nM and 153 nM.
Consider `CC(C)Nc1nc(C#N)cc2cnc(N[C@H]3C[C@H](N)C3)cc12` [Compound 183, 7-(((1r,3r)-3-aminocyclobutyl)amino)-1-(isopropylamino)-2,6-naphthyridine-3-carbonitrile], for which the IC50 at CDK9/CycT1 was determined as 1 nM; on CDK1/CycE1, 50 nM; on CDK2/CycA2, 28 nM.
`N#Cc1cc2cnc(N[C@H]3CCCNC3)cc2c(OC2CCCC2)n1` [Compound 185, (S)-1-(cyclopentyloxy)-7-(piperidin-3-ylamino)-2,6-naphthyridine-3-carbonitrile]: the values for the IC50 on CDK9/CycT1, on CDK1/CycE1 and against CDK2/CycA2 were 3 nM, 134 nM and 356 nM, respectively.
For `N#Cc1cc2cnc(N[C@H]3CCCNC3)cc2c(C2CCCC2)n1` [Compound 187, (S)-1-cyclopentyl-7-(piperidin-3-ylamino)-2,6-naphthyridine-3-carbonitrile], the values for the IC50 at CDK9/CycT1, at CDK1/CycE1 and against CDK2/CycA2 were 8 nM, 413 nM and 958 nM, respectively.
For the compound `CC(C)Oc1nc(C#N)cc2cnc(N[C@H]3CCCNC3)nc12` [Compound C49, (S)-8-isopropoxy-2-(piperidin-3-ylamino)pyrido[3,4-d]pyrimidine-6-carbonitrile], the IC50 against CDK9/CycT1 is 20 nM.

Source of the values: patent US20250163043A1 (TRANSTHERA SCIENCES (NANJING), INC., priority 2021, published 2025).
